One assay deals with HeLa cells. Nature of the assay: In-vitro evaluation of E7C71A9, Compound A, B, C as Luc-mRNA vector (Embodiment 27, Table 14). As to conditions: Luc-mRNA 100 ng/well, 16-20 h, relative to Lipofectamine3000, lipid:DSPC:cholesterol:PEG2000-DMG 43:10.5:45:1.5. In kind it is cell-based. An excerpt:
• Cell line: HeLa cell line • Culture medium: 1640 […] supplemented with 10% fetal calf serum • Screening form: 96-well plate cell transfection • Detection: fluorescence intensity detection by a multifunctional microplate reader. According to manufacturer's instructions, Lipofectamine3000 was used as a positive control group. • Method: a pipette was used for sample addition. The shown content is the content of a single well of a 96-well plate.
1. Synthesis of E7C71A9, Compound A, Compound B, and Compound C was performed as described above. And these four ionizable amino lipid compounds were respectively mixed with DSPC, cholesterol and PEG2000-DMG into absolute ethyl alcohol. according to a mole ratio of 43:10.5:45:1.5, The Luc-mRNA was dissolved into a sodium acetate buffer solution ([…], pH=5.0). The mixed lipid solution was taken out by a pipette, and was added into the Luc-mRNA solution to be sufficiently mixed. A proportion ratio of the ethyl alcohol solution to the sodium acetate buffer solution ([…], pH=5.0) was controlled to be 1:3, and a nanoparticle solution was prepared. A mass ratio of the amino lipid compound to luciferase mRNA (Luc mRNA) was about 10:1, and the mRNA consumption in each well was 100 ng.
2. After the lipid nanoparticle solution was incubated for 30 min at room temperature, 100 μL of fresh resuspended HeLa cells (1×10^4 cells) were added into each well of a 96-well all-white ELISA plate. Then, the lipid nanoparticle solution was added into the 96-well plate (10 μL for each well) by a pipette. The solution was placed into a 37° C. incubator containing 5% CO2 to be incubated.
3. After 16 h to 20 h of cell initial transfection, a substrate ONE-Glo™ Luciferase was added into cells at 100 μL/well, and after 2 min, detection was performed by a multifunctional or multimode microplate reader.
4. The relative transfection efficiency was calculated as follows: Relative transfection efficiency (%)=fluorescence intensity of LNP/fluorescence intensity of Lipofectamine3000×100%.

Assay [1] has as its system BMDC primary cells. Nature of the assay: Luc mRNA LNP transfection of the four amino lipids on BMDC primary cells (Embodiment 28, Table 15). As to conditions: Luc mRNA LNP 10 μL per well, 16 h, ONE-Glo Luciferase. In kind it is cell-based, C57BL/6 mice. On the procedure:
Preparation method: the same as that described above.
(§1) Animal preparation: 6-week-old female C57BL/6 mice with the body weight about 20 g were selected. The feeding environment was an SPF stage feeding room. Animal tests were strictly performed according to the guide of the national health institute and the animal ethics requirements.
(§2) Cell acquisition: C57BL/6 mice were killed through cervical dislocation, and were soaked for 5 min in 75% ethyl alcohol. Dissection was performed to obtain thigh and calf tibiae of the mice. Attached muscles were removed to expose sclerotin. Then, bone marrow in tibiae was blown out by using a 1 mL injector sucked with PBS. After the bone marrow was blown away, impurities were filtered away by a 50 μm filter screen. A red blood cell lysis buffer (3-4 mL) was added into an obtained filtrate. Then, after placement for 5 min, 800 g centrifugation was performed for 5 min to remove the supernatant. The obtained cells were placed into a 1640 culture medium (containing 10% fetal calf serum, 20 ng/mL GMCSF and 10 ng/ml IL4) to be resuspended, and were inoculated into a 6-well plate at an inoculation density of 100000 cells/ml culture medium. The materials were placed into a 37° C. cell incubator containing 5% CO2. Half liquid change was performed once every 2 days. Suspended cells and loose wall attached cells were collected on the seventh day, and were per well, and the volume of a culture medium was 100 μL.
(§3) Cell transfection: lipid nanoparticles coated with luciferase mRNA were added into a 96-well all-white ELISA plate laid with primary cells. The adding volume of the mRNA lipid nanoparticles in each well was controlled to be 10 μL. Then, the materials were put into a 37° C. incubator containing 5% CO2 for 16 h.
Transfection efficiency detection: 20 μL of a substrate ONE-Glo™ Luciferase was added into each well of a 96-well all-white ELISA plate. After 1 min, detection was performed by a multifunctional or multimode microplate reader. DLin-MC3 was used as a control.

For the next assay, the system named is endosome/lysosome. The note with it: background statement; cited from earlier work.
The test system of assay [2] is B16-OVA melanoma cells. Put plainly: OVA mRNA LNP vaccine, in-vivo immunity and tumor treatment (Embodiment 15). Further details: species or system C57BL/6 mice. As to conditions: B16-OVA tumor-bearing mice, two intramuscular injections of LNP with 1 μg OVA-mRNA, 7 days apart. As to the method: Preparation method: the amino lipid compounds of the disclosure, DSPC, cholesterol and PEG2000-DMG were mixed according to a mole ratio of 50:10:38.5:1.5 and were dissolved in absolute ethyl alcohol. OVA mRNA was dissolved in a sodium acetate buffer solution (50 nM, pH=4.0). The obtained ethyl alcohol solution and the acetate buffer solution […] were mixed in a micro-fluidic chip according to a volume ratio of 1:3 by using a micro-fluidic preparation system to obtain lipid nanoparticles. Then, dialysis was performed for 6 h under the conditions of 1×PBS and temperature was controlled at 4° C. by using a dialysis cassettes or box (MWCO 20,000). Filtration was performed by a 0.22 μm microporous filtering membrane prior to use. The mass ratio of the amino lipid compound to OVA mRNA was about 10:1.
(§4) Animal preparation: 5-6-week-old female C57BL/6 mice with the body weight about 18 to 20 g were selected. The feeding environment was an SPF stage feeding room. Animal tests were strictly performed according to the guide of the national health institute and the animal ethics requirements.
(§5) In-vivo delivery: B16-OVA melanoma cells (1.5×10^5) were injected to the outer thighs of the mice through subcutaneous injection. When the tumor grew to 50 mm^3 (on the about 6th or 7th day after tumor inoculation), the mice began to inoculated vaccines, the animals were subjected to twice immunization through intramuscular injection of an LNP preparation containing 1 μg OVA-mRNA. An interval between first and second injections was 7 days. The tumor growth was measured for 3 times every week by a digital display calliper, and a calculation formula was […]. When the tumor size reached 1500 mm^3, the mice received euthanasia. Additionally, 60% of mice (E7C71A9 group) and 40% of mice (E6C71A12 group) respectively reached the complete relieving effect.

Assay [3] deals with BMDC primary cells. Put plainly: Luc mRNA LNP transfection on BMDC primary cells (Embodiment 13, Table 3). The note with it: 16 h, ONE-Glo Luciferase. In kind it is cell-based, C57BL/6 mice. As to the method:
Preparation method: the same as that described in Embodiment 7.
as §1, §2, §3
Transfection efficiency detection: 20 μL of a substrate ONE-Glo™ Luciferase was added into each well of a 96-well all-white ELISA plate. After 1 min, detection was performed by a multifunctional or multimode microplate reader.

The subject of assay [4] is B16-OVA melanoma cells. Put plainly: OVA mRNA LNP vaccine, in-vivo immunity and tumor treatment (Embodiment 23). Further details: species or system C57BL/6 mice. As to conditions: B16-OVA tumor-bearing mice, two intramuscular injections of LNP with 5 μg OVA-mRNA, 7 days apart. On the procedure:
Preparation method: the amino lipid compounds of the disclosure, DSPC, cholesterol and PEG2000-DMG were mixed according to a mole ratio of 50:10:38.5:1.5 in absolute ethyl alcohol. OVA mRNA was dissolved in a sodium acetate buffer solution (50 nM, pH=4.0). The ratio of the ethyl alcohol solution to the acetate buffer solution (50 nM, pH=4.0) was controlled to be 1:3 by using two micro-injection pumps to prepare a coarse solution of the lipid nanoparticles in a micro-fluidic chip. Then, dialysis was performed for 6 h under the conditions of 1×PBS and temperature control at 4° C. by using a dialysis cassettes or box (MWCO 20,000). Before use, filtration was performed by a 0.22 μm microporous filtering membrane. A mass ratio of the amino lipid compound to OVA mRNA was about 8:1.
as §4
as §5, with “containing 5” for “containing 1”, “euthanasia.” for “euthanasia. Additionally, 60% of mice (E7C71A9 group) and 40% of mice (E6C71A12 group) respectively reached the complete relieving effect.”

The test system of assay [5] is BMDC primary cells. Nature of the assay: Luc mRNA LNP transfection on BMDC primary cells (Embodiment 21, Table 9). Format: cell-based, C57BL/6 mice. The note with it: 16 h, ONE-Glo Luciferase. As to the method: Preparation method: the same as that in Embodiment 17.
Animal preparation: 6-week-old female C57BL/6 mice with the body weight about 20 g were selected. A feeding environment was an SPF stage feeding room. Animal tests were strictly performed according to the guide of the national health institute and the animal ethics requirements.
as §2, with “to remove a supernatant. The” for “to remove the supernatant. The”, “and 10 ng/mL IL4) to” for “and 10 ng/ml IL4) to”, “and were inoculated to a 96-well all-white ELISA plate at the inoculation density of 20000 cells per well,” for “and were per well,”
Cell transfection: lipid nanoparticles coated with luciferase mRNA were added into a 96-well white ELISA plate laid with primary cells. The adding volume of the mRNA lipid nanoparticles in each well was controlled to be 10 μL. Then, the materials were put into a 37° C. incubator containing 5% CO2 for 16 h.
Transfection efficiency detection: 20 μL of a substrate ONE-Glo™ Luciferase was added into each well of a 96-well all-white ELISA plate, and after 1 min, detection was performed by a multifunctional or multimode microplate reader.

Here are results for seven molecules from US12679801B2, “Amino lipid and preparation method and application thereof” (Shenzhen MagicRNA Biotechnology Co., Ltd., priority 2022, dated 2026).

Turning to `CCCCCCCCCCC(CCOC(=O)C(CCCCCC)CCCCCCCC)OC(=O)CCCN(C)C` (stereo not shown) [Compound A, 3-((4-(dimethylamino)butanoyl)oxy)tridecyl 2-hexyldecanoate], the “Relative Transfection Efficiency” value in the assay with HeLa cells was 0.62. In addition, the “Fluorescence intensity (transfection expression intensity)” value (“Fluorescence intensity” below) in the assay on BMDC primary cells [1] worked out at 4.9E+04.

In the case of `CCCCCCCCCCC(CCCOC(=O)C(CCCCCC)CCCCCCCC)OC(=O)CCCN(C)C` (stereo not shown) [Compound B], the “Relative Transfection Efficiency” value in the assay on HeLa cells is 0.45. Moreover, the “Fluorescence intensity” value in the assay with BMDC primary cells [1] came to 2.5E+04.

For the molecule `CCCCCCCCCCC(CCCCOC(=O)C(CCCCCC)CCCCCCCC)OC(=O)CCCN(C)C` (stereo not shown) [Compound C], the “Relative Transfection Efficiency” value in the assay on HeLa cells stood at 0.39. In addition, the “Fluorescence intensity” value in the assay on BMDC primary cells [1] is 9.3E+03.

Turning to `CCCCC/C=C\C/C=C\CCCCCCCCC(CCCCCCCC/C=C\C/C=C\CCCCC)OC(=O)CCCN(C)C` [DLin-MC3, DLin-MC3-DMA], the “RNA that escapes from the endosome/lysosome” value in the assay on endosome/lysosome is recorded as 1%-4%.

As to `CCCCCCCCCC(COC(=O)C(CCCCCC)CCCCCCCC)OC(=O)CCCCCN(C)C` (stereo not shown) [E6C71A12], in the assay with B16-OVA melanoma cells [2], the “mice that reached the complete relieving effect” value was found to be 40%; the “result (survival curve, FIG. 4) compared with MC3 group” value is on record as “obviously superior to that of MC3 group”; the “tumor growth speed compared with MC3 group (FIG. 3)” value is on record as “obviously lower than that of MC3 group”. This molecule also returned a Luciferase luminescence intensity in the assay on BMDC primary cells [3] of 7.3E+ 04.

Consider `CCCCCCCCCCC(COC(=O)C(CCCCCC)CCCCCCCC)OC(=O)CCCN(C)C` (stereo not shown) [E7C71A9, 2-((4-(Dimethylamino)Butanoyl)Oxy) Dodecyl 2-Hexyldecanoate], for which, in the assay on HeLa cells, the “Relative Transfection Efficiency” value is 2.0. Also, in the assay on B16-OVA melanoma cells [2], the “mice that reached the complete relieving effect” value worked out at 60%; the “result (survival curve, FIG. 4) compared with MC3 group” value was “obviously superior to that of MC3 group”; the “tumor growth speed compared with MC3 group (FIG. 3)” value was “obviously lower than that of MC3 group”. Further, the “Fluorescence intensity” value with BMDC primary cells [1] was determined as 8.8E+04. In the assay with BMDC primary cells [3], this molecule returned a Luciferase luminescence intensity of 8.8E+ 04.

Consider `CCCCCCCCCCC(COC(=O)C(CCCCCCCC)CCCCCCCC)OC(=O)CCCCN(C)C` (stereo not shown) [E7C115A11], for which, in the assay on B16-OVA melanoma cells [4], the “mice tumors completely disappeared” value is 90%, the survival rate is 100%, the “survival rate compared with MC3 group (FIG. 6)” value is reported as “obviously superior to that of MC3 group” and the “tumor growth speed compared with MC3 group (FIG. 5)” value is reported as “obviously lower than that of MC3 group”. Moreover, the Luciferase luminescence intensity with BMDC primary cells [5] came out at 2.4E+05.
